# Assay results taken from patent US20080234262A1 (Wyeth, priority 2007, published 2008).
# Assays:
# [1] = target: PI3K (Homo sapiens, UniProt P42336); test: Fluorescence polarization assay for PI3K; assay type: biochemical; conditions: PI3Kα; read-out: PI3Kα IC50;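 note: PI3K kinase reaction on PIP2 with ATP, 30-60 min, product sensed by GST-GRP with red probe in fluorescence polarization (mP), controls without enzyme and at zero time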
# [2] = system: prostate line LNCap; test: In vitro cell culture growth assay (MTS), LNCap; assay type: cell-based, human; conditions: LNCap cells, three days after drug treatment;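 note: viable cell density read by absorbance at 490 nm, growth expressed as percent of vehicle-treated cells on the same plate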
# [3] = system: breast line MDA468; test: In vitro cell culture growth assay (MTS), MDA468; assay type: cell-based, human; conditions: MDA468 cells, three days after drug treatment
# How it was run: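 Growth measured as percent of same-plate vehicle control by MTS metabolic dye conversion (A490). Breast MDA468 and prostate LNCap cells, plated a day ahead, were exposed to compounds for 3 days.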
# Sequence of PI3K (P42336 whole entry): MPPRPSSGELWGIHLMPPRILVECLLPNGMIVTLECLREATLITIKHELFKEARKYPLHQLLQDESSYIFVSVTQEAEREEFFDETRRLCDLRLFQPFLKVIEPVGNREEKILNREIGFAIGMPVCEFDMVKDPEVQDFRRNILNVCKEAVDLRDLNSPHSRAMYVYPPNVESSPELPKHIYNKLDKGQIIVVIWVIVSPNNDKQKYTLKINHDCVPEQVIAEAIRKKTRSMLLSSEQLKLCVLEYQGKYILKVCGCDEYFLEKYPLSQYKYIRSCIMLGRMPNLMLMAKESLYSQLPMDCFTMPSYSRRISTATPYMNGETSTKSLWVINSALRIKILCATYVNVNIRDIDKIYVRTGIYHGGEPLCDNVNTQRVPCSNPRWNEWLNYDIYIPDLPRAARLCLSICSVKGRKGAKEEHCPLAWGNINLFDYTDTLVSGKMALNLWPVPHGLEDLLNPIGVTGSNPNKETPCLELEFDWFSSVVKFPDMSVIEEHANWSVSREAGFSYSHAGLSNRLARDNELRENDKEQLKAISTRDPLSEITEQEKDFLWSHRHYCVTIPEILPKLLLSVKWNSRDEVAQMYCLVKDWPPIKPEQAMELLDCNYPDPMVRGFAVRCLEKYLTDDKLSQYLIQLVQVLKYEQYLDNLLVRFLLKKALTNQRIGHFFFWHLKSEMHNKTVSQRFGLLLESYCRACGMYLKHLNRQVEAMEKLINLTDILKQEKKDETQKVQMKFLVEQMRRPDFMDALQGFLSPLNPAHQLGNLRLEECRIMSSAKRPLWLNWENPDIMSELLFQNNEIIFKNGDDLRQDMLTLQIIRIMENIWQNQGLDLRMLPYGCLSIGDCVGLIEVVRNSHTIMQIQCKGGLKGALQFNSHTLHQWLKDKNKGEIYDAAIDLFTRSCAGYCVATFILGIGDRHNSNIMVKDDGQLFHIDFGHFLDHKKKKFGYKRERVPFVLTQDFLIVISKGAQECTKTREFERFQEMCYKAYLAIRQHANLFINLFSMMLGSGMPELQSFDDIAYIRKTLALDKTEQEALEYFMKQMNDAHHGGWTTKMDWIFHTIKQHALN
# Sequence of PI3K (P27986 whole entry partner): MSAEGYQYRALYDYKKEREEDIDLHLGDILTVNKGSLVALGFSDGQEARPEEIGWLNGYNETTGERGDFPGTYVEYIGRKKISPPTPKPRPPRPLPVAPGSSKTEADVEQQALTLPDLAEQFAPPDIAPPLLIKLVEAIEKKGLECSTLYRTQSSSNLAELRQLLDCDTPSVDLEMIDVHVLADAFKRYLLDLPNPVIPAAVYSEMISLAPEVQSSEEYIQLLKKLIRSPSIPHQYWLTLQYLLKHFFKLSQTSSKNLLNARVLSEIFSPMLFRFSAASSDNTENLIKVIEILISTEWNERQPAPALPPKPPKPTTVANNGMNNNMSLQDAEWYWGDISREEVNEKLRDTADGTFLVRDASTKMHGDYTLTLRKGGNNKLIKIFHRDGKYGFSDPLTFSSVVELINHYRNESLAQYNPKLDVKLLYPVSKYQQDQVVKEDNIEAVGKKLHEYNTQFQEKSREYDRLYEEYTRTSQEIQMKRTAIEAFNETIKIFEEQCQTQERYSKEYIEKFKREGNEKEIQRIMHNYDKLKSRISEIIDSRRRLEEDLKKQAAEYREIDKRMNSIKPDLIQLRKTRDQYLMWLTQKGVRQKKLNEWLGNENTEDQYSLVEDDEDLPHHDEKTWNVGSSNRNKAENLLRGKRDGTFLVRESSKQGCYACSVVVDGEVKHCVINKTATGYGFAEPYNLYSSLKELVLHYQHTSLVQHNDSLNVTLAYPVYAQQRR
SMILES,IC50 [1] [nM],IC50 [2] [nM],"IC50 ([3]; Homo sapiens, 72 h) [nM]","IC50 ([2]; Homo sapiens, LNCaP, 72 h) [nM]",IC50 [3] [nM]
"O=C(NCCF)Nc1ccc(-c2nc(N3CCOCC3)c3cnn(C4CCN(C(=O)c5ccccc5)CC4)c3n2)cc1 [Compound 625, 1-{4-[1-(1-benzoylpiperidin-4-yl)-4-morpholin-4-yl-1H-pyrazolo[3,4-d]pyrimidin-6-yl]phenyl}-3-(2-fluoroethyl)urea]",454,< 27,27,,
"Nc1ccnc(-c2nc(N3CCOCC3)c3cnn(C4CCN(C(=O)c5cccnc5)CC4)c3n2)c1 [Compound 434, 2-{4-morpholin-4-yl-1-[1-(pyridin-3-ylcarbonyl)piperidin-4-yl]-1H-pyrazolo[3,4-d]pyrimidin-6-yl}pyridin-4-amine]",6660,,60000,39000,
CNc1ccc(-c2nc(N3CCOCC3)c3cnn(-c4ccccc4)c3n2)cc1 [Compound 128],384,,60000,4800,
"CNC(=O)Nc1ccc(-c2nc(N3CCOCC3)c3cnn(C4CCN(Cc5ccco5)CC4)c3n2)cc1 [Example 402, 1-(4-{1-[1-(2-furylmethyl)piperidin-4-yl]-4-morpholin-4-yl-1H-pyrazolo[3,4-d]pyrimidin-6-yl}phenyl)-3-methylurea]",63,,500,27,
"O=C(NCCF)Nc1cc(F)c(-c2nc(N3CCOCC3)c3cnn(C4CCN(C(=O)c5cccnc5)CC4)c3n2)cc1F [Example 467, 1-(2,5-difluoro-4-{4-morpholin-4-yl-1-[1-(pyridin-3-ylcarbonyl)piperidin-4-yl]-1H-pyrazolo[3,4-d]pyrimidin-6-yl}phenyl)-3-(2-fluoroethyl)urea]",2980,,2200,1200,
"CNC(=O)Nc1ccc(-c2nc(N3CCOCC3)c3cnn(C4CCN(CC5OCCO5)CC4)c3n2)cc1 [Compound 797, 1-(4-{1-[1-(1,3-dioxolan-2-ylmethyl)piperidin-4-yl]-4-morpholin-4-yl-1H-pyrazolo[3,4-d]pyrimidin-6-yl}phenyl)-3-methylurea]",155,,300,103,
"CCNC(=S)N1CCC(n2ncc3c(N4CCOCC4)nc(-c4ccc(NC(=O)OC)cc4)nc32)CC1 [Compound 812, methyl [4-(1-{1-[(ethylamino)carbonothioyl]piperidin-4-yl}-4-morpholin-4-yl-1H-pyrazolo[3,4-d]pyrimidin-6-yl)phenyl]carbamate]",688,,3000,2400,
CC(C)C(=O)N1CCC(n2ncc3c(N4CCOCC4)nc(-c4cccc(O)c4)nc32)CC1 [Example 29],59,,1200,400,
"CNC(=O)Nc1ccc(-c2nc(N3CCOCC3)c3cnn(C4CCN(Cc5ccc(F)cc5)CC4)c3n2)cc1 [Compound 671, 1-(4-{1-[1-(4-fluorobenzyl)piperidin-4-yl]-4-morpholin-4-yl-1H-pyrazolo[3,4-d]pyrimidin-6-yl}phenyl)-3-methylurea]",34,< 27,,,210
"O=C(NCCF)Nc1ccc(-c2nc(N3CCOCC3)c3cnn(-c4ccccc4)c3n2)cc1 [Compound 540, 1-(2-fluoroethyl)-3-[4-(4-morpholin-4-yl-1-phenyl-1H-pyrazolo[3,4-d]pyrimidin-6-yl)phenyl]urea]",250,,900,190,
"CNC(=O)Nc1ccc(-c2nc(N3CCOCC3)c3cnn(C4CCN(Cc5ccc(Br)nc5)CC4)c3n2)cc1 [Example 389, 1-[4-(1-{1-[(6-bromopyridin-3-yl)methyl]piperidin-4-yl}-4-morpholin-4-yl-1H-pyrazolo[3,4-d]pyrimidin-6-yl)phenyl]-3-methylurea]",31,,100,27,
"CNC(=O)Nc1ccc(-c2nc(N3C[C@@H](C)O[C@@H](C)C3)c3cnn(C4CCN(Cc5cccnc5)CC4)c3n2)cc1 [Compound 941, 1-(4-{4-[(2R,6S)-2,6-dimethylmorpholin-4-yl]-1-[1-(pyridin-3-ylmethyl)piperidin-4-yl]-1H-pyrazolo[3,4-d]pyrimidin-6-yl}phenyl)-3-methylurea]",3880,,9000,2000,
